Data published in PubChem BioAssay (NCI).
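Five compound concentrations were applied to cells in 96-well plates for 48 hours; endpoints were derived by simple linear interpolation of the resulting dose-response curve. GI50: concentration for 50% inhibition of growth. TGI is the concentration that stops growth completely.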

Assays:
Assay in all cases: growth of human tumour cells (NCI), 48 h
MDA-MB-435 = system: MDA-MB-435
HT29 colon = system: HT29 colon
A549 NSCLC = system: A549 NSCLC
K-562 leukemia = system: K-562 leukemia
IGROV1 ovarian = system: IGROV1 ovarian
SK-MEL-5 melanoma = system: SK-MEL-5 melanoma
MALME-3M melanoma = system: MALME-3M melanoma
SN12C renal = system: SN12C renal
NCI/ADR-RES ovarian = system: NCI/ADR-RES ovarian
UO-31 renal = system: UO-31 renal
NCI-H460 lung = system: NCI-H460 lung
HS 578T breast = system: HS 578T breast
M14 melanoma = system: M14 melanoma
SK-MEL-28 melanoma = system: SK-MEL-28 melanoma
786-0 renal = system: 786-0 renal
SW-620 colon = system: SW-620 colon
SF-295 CNS = system: SF-295 CNS
BT-549 breast = system: BT-549 breast
OVCAR-4 ovarian = system: OVCAR-4 ovarian
SK-OV-3 ovarian = system: SK-OV-3 ovarian
NCI-H522 lung = system: NCI-H522 lung
OVCAR-5 ovarian = system: OVCAR-5 ovarian
COLO 205 colon = system: COLO 205 colon
T-47D breast = system: T-47D breast
HCC-2998 colon = system: HCC-2998 colon
NCI-H226 lung = system: NCI-H226 lung
CCRF-CEM leukemia = system: CCRF-CEM leukemia
MCF7 breast = system: MCF7 breast
HCT-116 colon = system: HCT-116 colon
RXF 393 renal = system: RXF 393 renal
NCI-H23 lung = system: NCI-H23 lung
HL-60(TB) leukemia = system: HL-60(TB) leukemia
SF-268 CNS = system: SF-268 CNS
A498 renal = system: A498 renal
KM12 colon = system: KM12 colon
SR leukemia = system: SR leukemia
HCT-15 colon = system: HCT-15 colon
TK-10 renal = system: TK-10 renal
UACC-62 melanoma = system: UACC-62 melanoma
OVCAR-8 ovarian = system: OVCAR-8 ovarian
OVCAR-3 ovarian = system: OVCAR-3 ovarian
ACHN renal = system: ACHN renal
SNB-19 CNS = system: SNB-19 CNS
SNB-75 CNS = system: SNB-75 CNS
UACC-257 melanoma = system: UACC-257 melanoma
U251 CNS = system: U251 CNS
SK-MEL-2 melanoma = system: SK-MEL-2 melanoma
PC-3 prostate = system: PC-3 prostate
SF-539 CNS = system: SF-539 CNS
LOX IMVI melanoma = system: LOX IMVI melanoma
HOP-92 NSCLC = system: HOP-92 NSCLC
RPMI-8226 leukemia = system: RPMI-8226 leukemia
HOP-62 NSCLC = system: HOP-62 NSCLC
CAKI-1 renal = system: CAKI-1 renal
MOLT-4 leukemia = system: MOLT-4 leukemia
DU-145 prostate = system: DU-145 prostate

## CNC(=O)c1nn(C)c2c1C(C)(C)Cc1cnc(Nc3cccc(N4CCN(C)CC4)c3)nc1-2
MDA-MB-435
  GI50: 0.335 µM
  TGI: 11.8 µM
HT29 colon
  GI50: 0.524 µM
  TGI: > 35 µM
A549 NSCLC
  GI50: 0.34 µM
  TGI: 13.8 µM
K-562 leukemia
  GI50: 0.443 µM
  TGI: > 50 µM
IGROV1 ovarian
  GI50: 0.166 µM
  TGI: 11.6 µM
SK-MEL-5 melanoma
  GI50: 0.954 µM
  TGI: 5.46 µM
MALME-3M melanoma
  GI50: 0.223 µM
  TGI: 5.59 µM
SN12C renal
  GI50: 0.323 µM
  TGI: 31 µM
NCI/ADR-RES ovarian
  GI50: 2.1 µM
  TGI: > 48.8 µM
UO-31 renal
  GI50: 0.0881 µM
  TGI: 1.96 µM
NCI-H460 lung
  GI50: 0.303 µM
  TGI: 11.8 µM
HS 578T breast
  GI50: 0.204 µM
  TGI: 2.46 µM
M14 melanoma
  GI50: 0.204 µM
  TGI: 11.8 µM
SK-MEL-28 melanoma
  GI50: 1.32 µM
  TGI: 13.1 µM
786-0 renal
  GI50: 0.398 µM
  TGI: 14.1 µM
SW-620 colon
  GI50: 0.287 µM
  TGI: 22.4 µM
SF-295 CNS
  GI50: 0.332 µM
  TGI: 6.84 µM
BT-549 breast
  GI50: 2.37 µM
  TGI: 13.7 µM
OVCAR-4 ovarian
  GI50: 0.409 µM
  TGI: 44.3 µM
SK-OV-3 ovarian
  GI50: 0.21 µM
  TGI: 7.44 µM
NCI-H522 lung
  GI50: 0.554 µM
  TGI: 11.1 µM
OVCAR-5 ovarian
  GI50: 0.372 µM
  TGI: > 100 µM
COLO 205 colon
  GI50: 0.239 µM
  TGI: 1.59 µM
T-47D breast
  GI50: 0.59 µM
  TGI: 22.6 µM
HCC-2998 colon
  GI50: 0.83 µM
  TGI: 14.9 µM
NCI-H226 lung
  GI50: 0.237 µM
  TGI: 9.96 µM
CCRF-CEM leukemia
  GI50: 0.382 µM
  TGI: > 26.8 µM
MCF7 breast
  GI50: 0.304 µM
  TGI: 15.5 µM
HCT-116 colon
  GI50: 0.176 µM
  TGI: 31.2 µM
RXF 393 renal
  GI50: 0.147 µM
  TGI: 1.38 µM
NCI-H23 lung
  GI50: 0.372 µM
  TGI: 9.81 µM
HL-60(TB) leukemia
  GI50: 0.596 µM
  TGI: 6.64 µM
SF-268 CNS
  GI50: 0.931 µM
  TGI: 9.36 µM
A498 renal
  GI50: 0.0254 µM
  TGI: 0.389 µM
KM12 colon
  GI50: 0.0514 µM
  TGI: 3.43 µM
SR leukemia
  GI50: 0.286 µM
  TGI: 7.88 µM
HCT-15 colon
  GI50: 0.186 µM
  TGI: > 40.7 µM
TK-10 renal
  GI50: 0.271 µM
  TGI: 24.4 µM
UACC-62 melanoma
  GI50: 0.369 µM
  TGI: 11.6 µM
OVCAR-8 ovarian
  GI50: 1.25 µM
  TGI: 22.3 µM
OVCAR-3 ovarian
  GI50: 0.505 µM
  TGI: 13.4 µM
ACHN renal
  GI50: 0.0896 µM
  TGI: > 58.2 µM
SNB-19 CNS
  GI50: 0.322 µM
  TGI: 28.7 µM
SNB-75 CNS
  GI50: 0.159 µM
  TGI: 1.42 µM
UACC-257 melanoma
  GI50: 0.386 µM
  TGI: 7.09 µM
U251 CNS
  GI50: 0.291 µM
  TGI: 12.8 µM
SK-MEL-2 melanoma
  GI50: 0.244 µM
  TGI: 4.22 µM
PC-3 prostate
  GI50: 0.189 µM
  TGI: 7.24 µM
SF-539 CNS
  GI50: 0.406 µM
  TGI: 3.06 µM
LOX IMVI melanoma
  GI50: 0.178 µM
  TGI: 2.53 µM
HOP-92 NSCLC
  GI50: 0.164 µM
  TGI: 1.8 µM
RPMI-8226 leukemia
  GI50: 0.192 µM
  TGI: 1.06 µM
HOP-62 NSCLC
  GI50: 0.44 µM
  TGI: 17.9 µM
CAKI-1 renal
  GI50: 0.0636 µM
  TGI: 1.9 µM
MOLT-4 leukemia
  GI50: 0.236 µM
  TGI: 10.6 µM
DU-145 prostate
  GI50: 0.686 µM
  TGI: 14 µM
